{
  "source": "patent US20100267755A1",
  "about": "“PYRIMIDINE DERIVATIVES” (GLAXO GROUP LIMITED, priority 2001, published 2010)",
  "molecular_target": "T1, microsomal h-COX2 (Homo sapiens, UniProt P35354)",
  "T1 construct": "made in house; host or cells: baculovirus infected SF9 cells",
  "T1 sequence (P35354 18-604)": "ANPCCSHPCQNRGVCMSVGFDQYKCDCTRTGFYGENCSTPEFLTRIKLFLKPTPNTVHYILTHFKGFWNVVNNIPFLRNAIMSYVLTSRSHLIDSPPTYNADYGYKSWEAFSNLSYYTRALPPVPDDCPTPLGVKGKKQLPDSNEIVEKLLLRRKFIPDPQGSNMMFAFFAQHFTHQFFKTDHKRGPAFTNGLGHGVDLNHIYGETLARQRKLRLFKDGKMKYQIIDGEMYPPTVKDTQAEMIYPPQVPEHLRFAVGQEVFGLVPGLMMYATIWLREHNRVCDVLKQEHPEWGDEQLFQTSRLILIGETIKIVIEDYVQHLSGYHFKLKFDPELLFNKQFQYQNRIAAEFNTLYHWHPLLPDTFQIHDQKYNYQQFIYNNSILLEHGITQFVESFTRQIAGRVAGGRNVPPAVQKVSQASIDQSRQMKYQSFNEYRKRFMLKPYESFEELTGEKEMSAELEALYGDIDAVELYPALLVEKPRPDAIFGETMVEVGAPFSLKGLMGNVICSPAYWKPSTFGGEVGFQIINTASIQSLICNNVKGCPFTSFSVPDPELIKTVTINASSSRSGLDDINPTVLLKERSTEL",
  "assay": "Inhibitory activity against microsomal h-COX2 (PGE2 by EIA)",
  "type": "biochemical",
  "conditions": "for IC50: microsomal preparation from baculovirus infected SF9 cells, 0.1 μM arachidonic acid, read-out: COX-2 IC50; for inhibition at 10 µM: read-out: COX-2% inhibition",
  "experimental": "Inhibitory activity against microsomal h-COX2 was assessed against a microsomal preparation from baculovirus infected SF9 cells. An aliquot of microsomal preparation was thawed slowly on ice and a 1/40,000 dilution prepared from it into the assay buffer (sterile water, degassed with argon containing 100 mM HEPES (pH 7.4), 10 mM EDTA (pH7.4), 1 mM phenol, 1 mM reduced glutathione, 20 mg/ml gelatin and 0.001 mM Hematin). Once diluted the enzyme solution was then sonicated for 5 seconds (Branson sonicator, setting 4, 1 cm tip) to ensure a homogeneous suspension. […] Plates were then mixed and incubated at room temperature for 1 hour. Following the incubation period, 40 μl of 0.5 μM arachidonic acid was added to each well to give a final concentration of 0.1 μM. Plates were then mixed and incubated for exactly 10 minutes (room temperature) prior to addition of 25 μl 1M HCl (hydrochloric acid) to each well to stop the reaction. 25 μl of 1M NaOH (sodium hydroxide) was then added to each well to neutralise the solution prior to determination of PGE2 levels by enzyme immunoassay (EIA).",
  "data": [
    {"smiles": "Cc1c(-c2ccc(S(C)(=O)=O)cc2)nc(NCc2ccccc2)nc1C(F)(F)F", "note": "[Example 1, N-benzyl-5-methyl-4-[4-(methylsulfonyl)phenyl]-6-(trifluoromethyl)pyrimidin-2-amine]", "values": [
      {"measurement": "IC50", "value": 1.3, "unit": "µM"},
      {"measurement": "inhibition at 10 µM", "value": 61, "unit": "%"}
    ]},
    {"smiles": "Cc1c(-c2ccc(S(C)(=O)=O)cc2)nc(NCC(C)C)nc1C(F)(F)F", "note": "[Example 2, N-isobutyl-5-methyl-4-[4-(methylsulfonyl)phenyl]-6-(trifluoromethyl)pyrimidin-2-amine]", "values": [
      {"measurement": "IC50", "value": 6.6, "unit": "µM"}
    ]},
    {"smiles": "Cc1c(-c2ccc(S(C)(=O)=O)cc2)nc(NCc2ccccc2O)nc1C(F)(F)F", "note": "[Example 3]", "values": [
      {"measurement": "IC50", "value": 2.5, "unit": "µM"}
    ]},
    {"smiles": "Cc1c(-c2ccc(S(C)(=O)=O)cc2)nc(NCc2cccs2)nc1C(F)(F)F", "note": "[Example 4]", "values": [
      {"measurement": "IC50", "value": 0.56, "unit": "µM"}
    ]},
    {"smiles": "Cc1ccc(CNc2nc(-c3ccc(S(C)(=O)=O)cc3)c(C)c(C(F)(F)F)n2)cc1", "note": "[Example 5]", "values": [
      {"measurement": "IC50", "value": 15.3, "unit": "µM"}
    ]},
    {"smiles": "Cc1c(-c2ccc(S(C)(=O)=O)cc2)nc(NC2CCCCC2)nc1C(F)(F)F", "note": "[Example 6]", "values": [
      {"measurement": "IC50", "value": 2.3, "unit": "µM"}
    ]},
    {"smiles": "Cc1c(-c2ccc(S(C)(=O)=O)cc2)nc(NCC2CCOCC2)nc1C(F)(F)F", "note": "[Example 7]", "values": [
      {"measurement": "IC50", "value": "> 100", "unit": "µM"}
    ]},
    {"smiles": "CCCNc1nc(-c2ccc(S(C)(=O)=O)cc2)c(C)c(C(F)(F)F)n1", "note": "[Example 8]", "values": [
      {"measurement": "IC50", "value": 26.7, "unit": "µM"}
    ]},
    {"smiles": "Cc1c(-c2ccc(S(C)(=O)=O)cc2)nc(NCc2ccccn2)nc1C(F)(F)F", "note": "[Example 9]", "values": [
      {"measurement": "IC50", "value": "> 98.6", "unit": "µM"}
    ]},
    {"smiles": "Cc1c(-c2ccc(S(C)(=O)=O)cc2)nc(NCCc2ccccn2)nc1C(F)(F)F", "note": "[Example 10]", "values": [
      {"measurement": "IC50", "value": 71.2, "unit": "µM"}
    ]},
    {"smiles": "CCCCNc1nc(-c2ccc(S(C)(=O)=O)cc2)c(C)c(C(F)(F)F)n1", "note": "[Example 11]", "values": [
      {"measurement": "IC50", "value": 6.3, "unit": "µM"},
      {"measurement": "inhibition at 10 µM", "value": 43, "unit": "%"}
    ]}
  ]
}
